Values of other authors as cited in patent US12233067B2, “Topical treatment of vitiligo by a JAK inhibitor” (Incyte Corporation, priority 2019, dated 2025).

What was measured:
[1] = test system: patient with both alopecia areata and vitiligo; details: oral 20 mg BID for 20 weeks
[2] = test system: patient with widespread and progressive vitiligo; details: oral 5 mg QD; after 5 months of treatment

For `N#CC[C@H](C1CCCC1)n1cc(-c2ncnc3[nH]ccc23)cn1` [ruxolitinib, (R)-3-(4-(7H-pyrrolo[2,3-d]pyrimidin-4-yl)-1H-pyrazol-1-yl)-3-cyclopentylpropanenitrile], the clinical outcome [1] is listed as “hair regrowth as well as repigmentation of areas affected with vitiligo”.

In the case of `C[C@@H]1CCN(C(=O)CC#N)C[C@@H]1N(C)c1ncnc2[nH]ccc12` [tofacitinib], the clinical outcome [2] is given as “near complete repigmentation”.
